Experimental data from patent EP0465913B1, “Diaminotrifluoromethylpyrimidine derivatives, process for their production and phospholipase A2 inhibitor containing them” (ISHIHARA SANGYO KAISHA, LTD., priority 1990, dated 1992).
Several values for one entry are separate records, joined by “and”; a condition that tells them apart may be missing. Equal entries are not always repeated. Where two headings read alike, the source gives them in different places.

Assays:
[1] = test system: experimental acute pancreatitis model; test: Effects against acute pancreatitis (Test Example 7, closed duodenal loop method, gross pathological examination); format: in vivo, Crj-CD male rats; parameters: key to Pancreatic edema Distribution: -: No significant lesions; ± ∼ +++: Focal-diffuse; ± ∼ +++: Focal-diffuse; ± ∼ +++: Focal-diffuse; ± ∼ +++: Focal-diffuse; key to Pancreatic hemorrhage Petechia Grade / Pancreatic edema Grade: -: No significant lesions; ±: Minimal; +: Light; ++: Moderate; +++: Marked; details: 50 mg per kg continuous intravenous injection, examination 6 hours after ventrotomy, individual rats
Procedure: (§1) Using Crj-CD male rats (for Compound No. 19, rats having a body weight of from 371 to 484 g were used, and for Compound No. 10, rats having a body weight of from 444 to 574 g were used), each test group consisted of 3 rats. An experimental acute pancreatitis model was prepared by a closed duodenal loop method under anesthesia with halothane (manufactured by Hoechst Japan) and nitrous oxide (manufactured by Sumitomo Seika K.K.) applied by means of a general inhalation anesthesia machine (Model EM-2 and halothane evaporator F-Model). Then, Compound No. 19 or Compound No. 10 was continuously intravenously injected into the tail vein in an amount of 50 mg per kg or 40 mg per kg, respectively, at a rate of 0.05 ml per minute by means of a pump (Technicon AA II Proportioning Pump III, manufactured by Technicon Instruments Corporation). No injection was made to a control group. Gross pathological examination was conducted upon expiration of 6 hours after the ventrotomy in the case of the test group to which Compound No. 19 was administered, or upon expiration of 3 hours after the ventrotomy in the case of the test group to which Compound No. 10 was administered. As a result, as shown in the following Table 12, the groups to which the compounds of the present invention were administered, show distinct usefulness for treating acute pancreatitis.

[2] = target: T1, Porcine pancreatic phospholipase A2 (Sus scrofa, UniProt P00592); test: Phospholipase A2 inhibitory activity, method B (L-α-dipalmitoylphosphatidylcholine substrate); format: biochemical; details: 1,000 ppm, 37°C for 30 minutes, read-out: % inhibition of PLA2 (1,000 ppm)
T1 construct: purchased Boehringer Mannheim·Yamanouchi K.K. 161454·122416
T1 sequence (P00592 23-146): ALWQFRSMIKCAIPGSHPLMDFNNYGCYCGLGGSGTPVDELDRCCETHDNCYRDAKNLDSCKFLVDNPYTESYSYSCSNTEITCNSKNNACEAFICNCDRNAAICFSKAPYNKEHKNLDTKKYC
Method in brief: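 Substrate: L-α-dipalmitoylphosphatidylcholine/sodium cholate mixed micelles in 250 mM NaCl, 100 mM Tris-HCl pH 8.0. Enzyme (10 µg/ml stock) incubated with compound in buffer containing CaCl2 and BSA, 30 min at 37 °C. Released free fatty acid measured by ACS-ACOD at 540 nm; % inhibition derived from apparent enzyme concentration read off a standard curve.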

[3] = Acute toxicity, intravenous injection (LD50); format: in vivo; details: mouse, in vivo, iv, ddy male mice, sodium salt, mortality over one week
Procedure: Administration route: Intravenous injection
Using ddy male mice (body weight: 25 - 30 g), each test group consisted of 5 mice. A test compound was dissolved in the form of a sodium salt in a physiological saline or in a 5% glucose aqueous solution, and intravenously injected in an amount of 0.1 ml/10 g body weight. After the injection, the mortality rate was obtained over one week, and the median lethal dose LD50 (mg/kg) was determined.

[4] = test system: carrageenin edema; test: Inhibitory activity on carrageenin edema; format: in vivo, Wistar male rats; details: rat, paw swelling volume three hours after carrageenin; for inhibition in vivo at 100 mg/kg: dose 100 mg/kg orally; for Inhibition rate (%): dose 50 mg/kg orally
Method in brief: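 Male Wistar rats (about 100 g, 5 per group) dosed orally at 200, 100, 50 or 25 mg/kg as 2% Tween 80 suspension or aqueous salt solution, 1 h before subplantar injection of 0.1 ml 1% λ-carrageenin. Paw swelling measured at 3 h; % inhibition versus control group mean swelling.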

[5] = target: T1, Porcine pancreatic phospholipase A2; test: Phospholipase A2 inhibitory activity, method A (egg yolk lecithin substrate); format: biochemical; details: 1,000 ppm, 37°C for 30 minutes, read-out: % inhibition of PLA2 (1,000 ppm)
Method in brief: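 Egg yolk lecithin dispersed with glycerine, Triton X-100 and CaCl2 in 50 mM Tris-HCl pH7.5 was hydrolysed by enzyme (20 ng/ml solution) with compound, 37°C, 30 min. Released free fatty acid measured by ACS-ACOD method at 540 nm; apparent enzyme level read from a standard curve to give percent inhibition.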

[6] = test system: experimental acute pancreatitis model; test: Effects against acute pancreatitis (Test Example 7, closed duodenal loop method, gross pathological examination); format: in vivo, Crj-CD male rats; parameters: key: -: No significant lesions; ±: Minimal; +: Light; ++: Moderate; +++: Marked; details: 50 mg per kg continuous intravenous injection, examination 6 hours after ventrotomy, individual rats
Procedure: as §1

[7] = test system: increased vascular permeability induced by acetic acid; test: Inhibitory activity on increased vascular permeability induced by acetic acid (Mouse Whittle method, method C); format: in vivo, ddy male mice; details: dose 20 mg/kg orally, amount of leaked dye
Procedure: Using ddy male mice, each test group consisted of 4 or 5 mice. A test compound was mixed with Tween 80 [polyoxyethylenesorbitan monooleate (manufactured by Nacalai Tesque K.K.)], and distilled water was added thereto to obtain a 2% Tween 80 suspension, or it was dissolved in the form of a salt in water to obtain an aqueous solution. A test compound was orally administered, and upon expiration of one hour from the administration, 0.7% acetic acid was intraperitonially injected to each mouse in an amount of 0.1 ml/10 g, and at the same time, 2% brilliant blue was intravenously injected into the tail vein in an amount of 0.1 ml/20 g. Thirty minutes after the injection of brilliant blue, the cervical vertebrae were dislocated under anesthesia by chloroform, and the abdorminal cavity was washed with 5 ml of a physiological saline. The washing solution was subjected to centrifugal separation at 3,000 rpm for 10 minutes, and the amount of the dye in the supernatant was measured at 600 nm absorbance by Microplate ELISA Reader (Model 2550EIA Reader, manufactured by Bio-Rad Laboratories). The inhibition rate of the amount of leaked dye in the group in which a test compound was administered relative to the control group was obtained by the following formula. Inhibition rate (%) = (l -(C)/(D)) x 100 [formula] • C: Amount of leaked dye in the group to which a test compound was administered. • D: Amount of leaked dye in the control group.

[8] = test system: experimental acute pancreatitis model; test: Effects against acute pancreatitis (Test Example 8, closed duodenal loop method, lesion scores); format: in vivo, Crj-CD male rats; details: sodium salt, 6 hours after ventrotomy; for inhibition in vivo at 10 mg/kg: Rattus norvegicus, 10 mg/kg single intravenous injection
Method in brief: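 Closed duodenal loop pancreatitis in male Crj-CD rats (n=3) under halothane/nitrous oxide; sodium-salt compounds given i.v. into tail vein by continuous infusion or bolus, controls untreated. At 6 h, four pancreatic lesions scored 0-3; inhibition % of total and hemorrhagic scores calculated versus control.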

[9] = test system: increased vascular permeability induced by acetic acid; test: Inhibitory activity on increased vascular permeability induced by acetic acid (Rat Whittle method, method D); format: in vivo, SD (Crj: CD) male rats; details: amount of leaked dye
Procedure: Using SD (Crj: CD) male rats, each test group consisted of from 3 to 5 rats. A test compound was mixed with Tween 80 [polyoxyethylenesorbitan monooleate (manufactured by Nacalai Tesque K.K.)], and distilled water was added thereto to obtain a 2% Tween 80 suspension, or it was dissolved in the form of a salt in water to obtain an aqueous solution. A test compound was orally administered, and one hour later, 0.7% acetic acid was intraperitonially injected to each rat in an amount of 0.05 ml/10 g, and at the same time, 2% brilliant blue was intravenously injected into the tail vein in an amount of 0.05 ml/20 g. Thirty minutes after the injection of brilliant blue, the cervical vertebrae were dislocated under anesthesia by chloroform, and the abdorminal cavity was washed with 10 ml of a physiological saline. The washing solution was subjected to centrifugal separation at 3,000 rpm for 10 minutes, and the amount of the dye in the supernatant was measured at 600 nm absorbance by Microplate ELISA Reader (Model 2550EIA Reader, manufactured by Bio-Rad Laboratories). The inhibition rate of the amount of leaked dye in the group to which a test compound was administered relative to the control group was obtained from the following formula, and the results are shown in Table 9. Inhibition rate (%) = (l -(C)/(D)) x 100 [formula] • C: Amount of leaked dye in the group to which a test compound was administered. • D: Amount of leaked dye in the control group.

[10] = po, 3 h, read-out: Inhibition rate (%)
[11] = read-out: Inhibition rate of hemorrhagic lesions (%)
[12] = read-out: Inhibition rate of pancreatitis lesions (%)

inhibition at 1000 ppm [2] | SMILES | LD50 at 168 h [3] | Inhibition rate (%) [7] | Inhibition rate (%) ([9]; dose 25 mg/kg orally) | inhibition in vivo at 10 mg/kg [8, 11] | inhibition in vivo at 10 mg/kg [8, 12] | Inhibition rate (%) [4] | Inhibition rate (%) ([9]; dose 50 mg/kg orally) | also measured
73% | CS(=O)(=O)Nc1ncc(C(F)(F)F)cc1NC(=O)C=Cc1cccs1 [compound 72] |  |  | 66% | 62% | 32% |  |  | inhibition in vivo at 25 mg/kg ([4]; po, 3 h, dose 25 mg/kg orally, read-out: Inhibition rate (%)): 21%
38% | CS(=O)(=O)Nc1ncc(C(F)(F)F)cc1NC(=O)c1ccncc1 [compound 82] |  |  | 38% |  |  | 19% |  | 
65% | CCS(=O)(=O)Nc1ncc(C(F)(F)F)cc1NC(=O)c1cccc(F)c1 [compound 98] |  |  |  |  |  | 45% | 32% | 
35% | CN(C)S(=O)(=O)Nc1ncc(C(F)(F)F)cc1NC(=O)c1cccc(F)c1 [compound 113] |  |  |  | 41% | 36% | 26% | 67% | 
90% | CS(=O)(=O)Nc1ncc(C(F)(F)F)cc1NC(=O)OC1CCCCC1 [compound 121] |  |  |  |  |  |  |  | Inhibition rate (%) ([9]; dose 12.5 mg/kg orally): 31%

Continued, compound first:

SMILES | inhibition at 1000 ppm [2] | LD50 at 168 h [3] | Inhibition rate (%) [7] | Inhibition rate (%) ([9]; dose 25 mg/kg orally) | inhibition in vivo at 10 mg/kg [8, 11] | inhibition in vivo at 10 mg/kg [8, 12] | Inhibition rate (%) [4] | Inhibition rate (%) ([9]; dose 50 mg/kg orally) | also measured
CCS(=O)(=O)Nc1ncc(C(F)(F)F)cc1NC(=O)C(F)(F)C(F)(F)F [Compound No. 19, N-(2-ethylsulfonylamino-5-trifluoromethyl-3-pyridyl)pentafluoropropionamide] | 75% | 50 to 100 mg/kg |  |  |  |  |  |  | Pancreatic edema Distribution [1]: + (2×) and ††; Pancreatic edema Grade [1]: + (2×) and ††; Pancreatic hemorrhage Petechia Grade [1]: -; inhibition in vivo at 100 mg/kg [4, 10]: 31%; inhibition at 1000 ppm [5]: > 90%; Pancreatic hemorrhage Petechia Distribution [6]: -
CS(=O)(=O)Nc1ncc(C(F)(F)F)cc1NC(=O)c1ccccc1F [compound 57] |  | 83 mg/kg | 43% |  |  |  |  |  | inhibition in vivo at 100 mg/kg [4, 10]: 35%; inhibition at 1000 ppm [5]: 57%; Inhibition rate of hemorrhagic lesions (%) ([8]; 20 mg/kg continuous intravenous injection): 60%
CS(=O)(=O)Nc1ncc(C(F)(F)F)cc1NC(=O)c1cccc(C(F)(F)F)c1 [compound 80] | 73% | > 80 mg/kg |  | 33% | 11% | 8% | 29% |  | 
CCS(=O)(=O)Nc1ncc(C(F)(F)F)cc1NC(=O)c1ccco1 [compound 101] |  |  | 46% |  |  |  | 24% | 41% | 
CS(=O)(=O)Nc1ncc(C(F)(F)F)cc1NC(=O)c1cccs1 [compound 120] |  | 83 mg/kg | 43% |  |  |  | 27% | 35% | Inhibition rate of hemorrhagic lesions (%) ([8]; 24 mg/kg continuous intravenous injection): 100%
